This data set has as its system NX18 cells. As to the kind of experiment: Glioblastoma neurosphere cell viability with the test compound and an mTOR inhibitor, Cell TiterGlo. Particulars: NX18 neurospheres, 72 hours, normalized to DMSO vehicle; for cytotoxicity at 0.01 µM: mTOR inhibitor alone, final concentration 10 nM, read-out: percent inhibition of cell viability, mTOR inhibitor alone; for percent inhibition of cell viability, Combined: named mTOR inhibitor (10 nM) combined with test compound @ 3 μM. It is filed as cell-based. As to the method: After another 72 hours, cell viability was determined using the Cell TiterGlo kit (#G7570, Promega, Madison. WI) following the manufacturer's instructions on a Tecan M200 Pro Plate Reader (Tecan, Mannedorf, CH). Percent viable cells were normalized against vehicle control (DMSO set as 100%).
On the technique in general: ATP-based viability assays read luminescence as a measure of living cells.

`CO[C@H]1C[C@@H]2CC[C@@H](C)[C@@](O)(O2)C(=O)C(=O)N2CCCC[C@H]2C(=O)O[C@H]([C@H](C)C[C@@H]2CC[C@@H](OCCO)[C@H](OC)C2)CC(=O)[C@H](C)/C=C(\C)[C@@H](O)[C@@H](OC)C(=O)[C@H](C)C[C@H](C)/C=C/C=C/C=C/1C` [Everolimus]: the cytotoxicity at 0.01 µM worked out at 45% and the “percent inhibition of cell viability, Combined” value was 60%.

For the molecule `CO[C@H]1C[C@@H]2CC[C@@H](C)[C@@](O)(O2)C(=O)C(=O)N2CCCC[C@H]2C(=O)O[C@H]([C@H](C)C[C@@H]2CC[C@@H](O)[C@H](OC)C2)CC(=O)[C@H](C)/C=C(\C)[C@@H](O)[C@@H](OC)C(=O)[C@H](C)C[C@H](C)/C=C/C=C/C=C/1C` [Rapamycin], the cytotoxicity at 0.01 µM was 41% and the “percent inhibition of cell viability, Combined” value is reported as 61%.

Turning to `Cc1cc(NCCCN(C)C)nc(NC(=O)Nc2ccc(Cl)c(Cl)c2)n1` [Test compound], for the setting “test compound alone at 3 μM, read-out: percent inhibition of cell viability, Test compound @ 3 μM”, the cytotoxicity at 3 µM worked out at 30%.
